Results published in patent US11203583B2, “Prodrug and profluorescent compounds for selective mitochondrial imaging and therapeutic targeting” (ARIZONA BOARD OF REGENTS ON BEHALF OF ARIZONA STATE …, priority 2016, dated 2021).
Entries after “also recorded” stand apart in the source; their conditions may differ.

Legend:
[1] = system: NADH oxidase (mitochondrial respiratory complexes I, III, and IV); assay: NADH oxidase activity assay in bovine heart submitochondrial particles; type: biochemical; settings: for NADH oxidase inhibitory activity (qualitative comparison): 0.05, 0.1 and 0.5 μM concentrations, FIG. 9a
Experimental: The effect of compounds AMA, 4a and 4b on NADH oxidase activity were evaluated using bovine heart mitochondria. The bovine heart mitochondria and bovine heart submitochondrial particles (SMPs) were prepared as described.^2 The SMPs were diluted to 0.5 mg/mL, and the test compounds were assayed at 25° C. and monitored spectrophotometrically using a Beckman Coulter DU-530 spectrometer (340 nm, c 6.22 mM^−1 cm^−1). NADH oxidase activity was determined in 1 mL of 50 mM Hepes buffer containing 5 mM MgCl2, pH 7.5. The final mitochondrial protein concentration was 30 μg/mL. The initial rates of NADH oxidation were calculated from the linear portion of the traces. Data are reported as the mean of three independent experiments each run in triplicate.

[2] = system: mitochondrial nitroreductase in live A549 cells; assay: Fluorescence microscopy: activation of prodrugs 4a and 4b (AMA release) in live A549 cells; type: cell-based, human; settings: 25 μM; for localization of AMA fluorescence relative to mitochondria in A549 cells: MitoTracker Green FM; for release of AMA (appearance of AMA fluorescence, λem ~425 nm) in live A549 cells: 4 hours
Experimental: The finding of nitroreductase activity associated with the mitochondria of human cells encouraged us to design a new prodrug based on the mitochondrial poison antimycin A (AMA). It has recently been noted that AMA is toxic only at relatively high concentration,^19 plausibly due to a lack of facile access to the mitochondria. […] Accordingly, 0-p-nitrobenzyl-AMA (4a) was prepared in good yield by alkylation of AMA (FIG. 8a). Also prepared as a control was O-benzyl-AMA (4b). […] Accordingly, it is possible to monitor the release of AMA within the mitochondria after enzymatic reduction of the nitro moiety in 4a.
Fluorescence microscopy images were acquired using a Zeiss Axiovert 200M inverted microscope fitted with an AxioCam MRm camera equipped with a 300 W xenon lamp (Sutter, Novato, Calif., USA), and DAPI (blue channel) and Texas red (red channel) filters (Chroma, Bellows Falls, Vt., USA). A549 cells were grown on glass bottom microwell disks (MatTek Corporation, MA, USA) at a cell density of 10000 cells/well at 37° C. for 24 hours. When the cell confluence reached ˜60-70%, the cells were rinsed three times with phosphate buffered saline (PBS). The cells were then treated with AMA, 4a and 4b at 25 μM concentration for 4 hours. The cells were then stained using 100 nM MitoTracker Green FM (Cell Signaling Technology, Danvers, Mass., USA) for 40 minutes. Thereafter, all images were recorded and counted using a 40× oil objective. To ensure accurate intensity measurements, the exposure time and laser time were kept the same. Data are reported as the mean of three independent experiments.

[3] = Relative fluorescence quantum yield; type: physicochemical
Experimental: All experiments requiring anhydrous conditions were conducted in flame-dried glassware fitted with a rubber septum under a positive pressure of dry argon. Reactions were performed at room temperature unless otherwise indicated. Analytical thin layer chromatography was performed using glass plates pre-coated with silica gel (0.25 mm, 60 Å pore size, 230-400 mesh, Silicycle) impregnated with a fluorescent indicator (254 nm). TLC plates were visualized by exposure to ultraviolet light (UV) or by staining using […]. Flash column chromatography was performed employing silica gel (60 Å pore size, 40-63 μm, standard grade, Silicycle). Fluorescence quantum yields were measured at 25° C. by a relative method using cresyl violet (CV, ΦF=56% in EtOH) as a standard.^1 The following equation was used to determine the relative fluorescence quantum yield: ΦF(x)=(AS/AX)(FX/FS)(nX/nS)^2ΦF(s) where A is the absorbance (in the range of 0.01-0.1 A.U.), F is the area under the emission curve, n is the refractive index of the solvents (at 25° C.) used in measurements, and the subscripts s and x represent standard and unknown, respectively. The following refractive index values were used: 1.362 for EtOH and 1.337 for PBS.

A549 lung cancer cells = assay: MTT toxicity assay; type: cell-based, human; settings: 24 h incubation at 1, 5 and 10 μM, FIG. 9b
Experimental: Exponentially growing A459 cells were harvested and plated in 96-well plates at a concentration of 2×10^4 cells/well. After incubation at 37° C. for 24 h, the cells were treated with compounds AMA, 4a and 4b at final concentrations of 1, 5 and 10 μM for an additional 24 hours. Then 20 μL of MTT (5 mg/mL) was added to each well and the plates were incubated at 37° C. for 4 h. The supernatants were discarded, and 100 μL of DMSO was added to each well. The absorbance was recorded at 490 nm after 15 min. Cell viability was determined by the following formula: cell viability (%)=100−(ODnegative control−ODtreatment)×100%/(ODnegative control−ODbackground). Data are reported as the mean of three independent experiments, each run was carried out quintuplicate.

E. coli nitroreductase = E. coli nitroreductase (Escherichia coli, UniProt P38489); assay: Cell-free activation of profluorescent probes by purified E. coli nitroreductase (fluorescence monitoring); type: biochemical
Text: (§1) The strategy for the release of the fluorescent NIR dye from a non-fluorescent precursor via mitochondrial nitroreductase-mediated reduction involved successive reduction, then elimination (FIG. 5b). The use of ortho, meta and para substituted probes (2a-2c) was crucial because it enabled the investigation of the proposed transformation in greater detail. […] To assess the viability of these probes for the detection of nitroreductase activity, we first validated the probes in a cell free system using purified E. coli nitroreductase. Probes 2a-c (10 μM) were incubated in PBS buffer, pH 7.4, containing 0.5 mM NADH. After a short time, during which no fluorescence was observed, the nitroreductase was added (1 μg mL^−1) and the development of fluorescence was monitored as a function of time (FIGS. 6b, 6c). […] This confirms that the released fluorescent dye is effectively of the QCy7 type by comparison with an authentic standard prepared by chemical synthesis (FIG. 13). With the viability of this probe thus confirmed, we carried out microscopy experiments employing A549 cancer cells. The incubation of 10 μM 2c with the cells for 4 hours was followed by the addition of […] mitotracker green (40-minute incubation). […] The green channel (FIG. 7b) illustrates visualization of the mitochondria by mitotracker green. […] For 2b this is understandable as no elimination process is possible, as confirmed during the in vitro tests. In the case of 2a, we assume that the low kinetics of the reduction (c.f. FIG. 6b) is probably the cause of the absence of a strong signal. […]
A solution of fluorogenic probe was prepared in 1 mL of phosphate buffered saline (PBS) and 150 μL of the resulting solution was transferred into a quartz fluorescence cell. […] After excitation at 572 nm the emission of the released fluorophore was monitored at 703 nm over time with measurements recorded every 1 sec. After 100 sec of incubation, 1.51 μL of a 1 mg mL^−1 solution of E. coli nitroreductase in water was added in the quartz fluorescence cell and the solution was mixed as the monitoring proceeded.

DT diaphorase = DT diaphorase (Homo sapiens, UniProt P15559); assay: Selectivity of probe activation: DT diaphorase versus nitroreductase; type: biochemical; settings: 10 μM 2c, 1 μg mL^-1 DTD or NTR, 10 mM PBS pH 7.4, 20 min, 25° C.
Experimental: FIGS. 6A-6D. (a) Selective activation of 2c in vitro by E. coli nitroreductase. (b) Time dependent fluorescence emission by 2a, 2b and 2c (excitation at 572 nm; emission at 703 nm) in PBS at 25° C. following treatment with E. coli NTR (1 μg mL^−1) and 0.5 mM NADH. (c) Absorbance spectrum evolution with time during incubation of probe 2c in […] PBS buffer, pH 7.4, with E. coli NTR (1 μg mL^−1) and 0.5 mM NADH. (d) Development of fluorescence from 10 μM 2c following treatment with 1 μg mL^−1 DT diaphorase (DTD) or nitroreductase (NTR) in 10 mM PBS buffer, pH 7.4, for 20 min at 25° C. with or without […] NADH.
The strategy for the release of the fluorescent NIR dye from a non-fluorescent precursor via mitochondrial nitroreductase-mediated reduction involved successive reduction, then elimination (FIG. 5b). The use of ortho, meta and para substituted probes (2a-2c) was crucial because it enabled the investigation of the proposed transformation in greater detail. […] To assess the viability of these probes for the detection of nitroreductase activity, we first validated the probes in a cell free system using purified E. coli nitroreductase. […] After a short time, during which no fluorescence was observed, the nitroreductase was added (1 μg mL^−1) and the development of fluorescence was monitored as a function of time (FIGS. 6b, 6c). […]

[4] = system: mitochondrial nitroreductase in live A549 cells; assay: Fluorescence microscopy: activation of probes 2a, 2b and 2c in live A549 cells; type: cell-based, human
Text: as §1
Fluorescence images were acquired using a Zeiss Axiovert 200M inverted microscope fitted with an AxioCam MRm camera equipped with a 300 W xenon lamp (Sutter, Novato, Calif.), and Texas red and FITC filters (Chroma, Bellows Falls, Vt.). […] Thereafter, all images were recorded and the target cells counted using a 40× oil objective. […] Pixel intensity was quantified using AxioVision release 4.7 version software, and the mean pixel intensity was generated as gray level. […]

Sequence of E. coli nitroreductase (P38489 whole entry): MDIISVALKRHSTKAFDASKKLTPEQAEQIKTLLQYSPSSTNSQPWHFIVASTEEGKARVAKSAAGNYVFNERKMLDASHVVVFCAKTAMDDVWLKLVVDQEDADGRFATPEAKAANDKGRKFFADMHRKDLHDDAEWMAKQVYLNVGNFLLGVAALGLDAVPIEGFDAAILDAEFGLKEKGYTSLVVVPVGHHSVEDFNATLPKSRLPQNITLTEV
Sequence of DT diaphorase (P15559 whole entry, species assumed): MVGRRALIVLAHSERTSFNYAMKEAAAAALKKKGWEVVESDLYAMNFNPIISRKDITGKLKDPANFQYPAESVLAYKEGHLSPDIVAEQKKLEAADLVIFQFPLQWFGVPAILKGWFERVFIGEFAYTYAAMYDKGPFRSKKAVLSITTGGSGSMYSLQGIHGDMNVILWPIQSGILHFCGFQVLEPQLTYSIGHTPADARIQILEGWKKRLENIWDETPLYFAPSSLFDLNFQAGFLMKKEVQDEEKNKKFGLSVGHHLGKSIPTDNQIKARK

CCCCCC[C@H]1C(=O)O[C@H](C)[C@H](NC(=O)c2cccc(NC=O)c2O)C(=O)O[C@@H](C)[C@@H]1OC(=O)CC(C)C [AMA, antimycin A, reference compound]
inhibition of NADH oxidase ([1]; 50 nM concentration): essentially completely
NADH oxidase inhibitory activity (qualitative comparison) [1]: potent inhibitor
localization of AMA fluorescence relative to mitochondria in A549 cells [2]: did not fully colocalize with mitochondria
quantum yield of the released AMA [3]: ~0.06

CCCCCC[C@H]1C(=O)O[C@H](C)[C@H](NC(=O)c2cccc(NC=O)c2OCc2ccc([N+](=O)[O-])cc2)C(=O)O[C@@H](C)[C@@H]1OC(=O)CC(C)C [Compound 4a, 2-O-(p-Nitrobenzyl)AMA]
NADH oxidase inhibitory activity (qualitative comparison) [1]: much weaker activity
release of AMA (appearance of AMA fluorescence, λem ~425 nm) in live A549 cells [2]: AMA was released from 4a
localization of AMA fluorescence relative to mitochondria in A549 cells [2]: Free AMA appeared exclusively in the mitochondria; also recorded: localized to the mitochondria
cytotoxicity toward A549 cancer cells (qualitative comparison) (A549 lung cancer cells): much more cytoxic toward A549 cancer cells than 4b; also recorded: considerably more cytotoxic than exogenously added AMA

CCCCCC[C@H]1C(=O)O[C@H](C)[C@H](NC(=O)c2cccc(NC=O)c2OCc2ccccc2)C(=O)O[C@@H](C)[C@@H]1OC(=O)CC(C)C [Compound 4b, 2-O-Benzyl-AMA]
NADH oxidase inhibitory activity (qualitative comparison) [1]: much weaker activity
release of AMA (appearance of AMA fluorescence, λem ~425 nm) in live A549 cells [2]: no significant release of AMA; also recorded: not to a significant extent

CC[N+]1=C(/C=C/c2ccc(OCc3ccc([N+](=O)[O-])cc3)c(/C=C/C3=[N+](CC)c4ccccc4C3(C)C)c2)C(C)(C)c2ccccc21 [probe 2c]
rate of activation by E. coli nitroreductase, compared between probes (E. coli nitroreductase; 10 μM probe, PBS pH 7.4, 0.5 mM NADH, NTR 1 μg mL^-1): much faster than the activation of 2a
development of fluorescence (activation) after addition of E. coli nitroreductase (E. coli nitroreductase; 10 μM probe, PBS pH 7.4, 0.5 mM NADH, NTR 1 μg mL^-1, excitation 572 nm, emission 703 nm, 25° C.): good activation
dependence of fluorescence / activation on probe concentration (E. coli nitroreductase; PBS 25° C., 0.5 mM NADH, E. coli NTR 1 μg mL^-1): linear correlation between fluorescence intensity and probe concentration; also recorded: increased with increasing substrate concentration
activation by DT diaphorase versus nitroreductase, with or without NADH (DT diaphorase): significant activation occurred only in the presence of the nitroreductase+NADH
colocalization of probe fluorescence with MitoTracker Green (mitochondria) ([4]; 10 μM 2c, 100 nM MitoTracker Green FM, DAPI): colocalized to mitochondria; also recorded: complete overlap of the red and green signals
red fluorescence signal (release of QCy7 dye 3) in live A549 cells ([4]; 10 μM probe, 4 hours incubation, no hypoxic condition): activation of 2c by mitochondrial nitroreductase; also recorded: appearance of a red signal
concentration dependence of the signal in A549 cells ([4]; different times and concentrations, FIG. 16): concentration dependent
